Measurements: patent US20050043379A1, “LTA4H Modulators” (priority 2003, published 2005)
Counter-ions that a name gives are not always drawn.

Test system: neutrophil influx (myeloperoxidase activity) in arachidonic acid-treated ear
Experiment: Murine arachidonic acid-induced inflammation model: neutrophil influx by myeloperoxidase (MPO) activity in ear biopsies
Assay type: in vivo, mouse (female Balb/c)
Conditions: Mus musculus, TABLE 7, 30 mg/kg oral gavage, ear biopsies 3 h after topical arachidonic acid (given 60 min after dose), read-out: % Inh. MPO
Description: Murine Arachidonic Acid-induced Inflammation Model LTA4H inhibitor compounds of the present invention were dissolved in 20% cyclodextran/H2O at a concentration of 3 mg/mL. The solutions were administered by oral gavage to female Balb/c mice weighing approximately 20 grams each (0.2 mL per mouse, 30 mg of LTA4H inhibitor compound per kg). Sixty minutes after being administered an LTA4 inhibitor, each mouse received topical application of 20 μL of arachidonic acid (100 mg/mL in acetone) to the left ear and 20 μL of acetone only to the right ear. After 3 h, the mice were sacrificed, blood was withdrawn in heparinized syringes, and 8 mm ear biopsies were taken. Ear biopsies were weighed to determine edema and then frozen at -80° C. until needed for determination of neutrophil influx. Neutrophil influx was quantified by measuring the activity of myeloperoxidase (MPO), a neutrophil-specific enzyme. […] Debris was removed by centrifugation at 14000×g for 10 min. […] The microtiter plate contents were held at room temperature for 1 h. The reaction was stopped by addition of 100 μ[…] H2SO4 to each sample well, and the myeloperoxidase activity in each sample was determined from the absorbance at 405 nm. The background value from the right ear, treated only with acetone, was subtracted from that for the left ear, treated with arachidonic acid in acetone, for each animal. The percent inhibition of neutrophil influx (% Inh. MPO) by compounds of the invention was determined by comparison to animals treated identically, except that the solution administered by oral gavage was devoid of inhibitor compound.

Row | Compound | inhibition at 30 mg/kg
1 | c1ccc2oc(Oc3ccc(OCCN4CCCCC4)cc3)nc2c1 [Example 11, 2-[4-(2-Piperidin-1-yl-ethoxy)-phenoxy]-benzooxazole] | 95%
2 | OC1CCN(CCOc2ccc(Oc3nc4ccccc4o3)cc2)CC1 [Example 14, 1-{2-[4-(Benzooxazol-2-yloxy)-phenoxy]-ethyl}-piperidin-4-ol] | 56%
3 | OC1(c2ccccc2)CCN(CCCOc2ccc(Oc3nc4ccccc4o3)cc2)CC1 [Example 27, 1-{3-[4-(Benzooxazol-2-yloxy)-phenoxy]-propyl}-4-phenyl-piperidin-4-ol] | 72%

Same assay, conditions: Mus musculus, TABLE 8, 30 mg/kg oral gavage, ear biopsies 3 h after topical arachidonic acid (given 60 min after dose), read-out: % Inh. MPO

Row | Compound | inhibition at 30 mg/kg
4 | O=C(O)C1CCN(CCc2ccc(Oc3nc4ccccc4s3)cc2)CC1 [Example 150, 1-{2-[4-(Benzothiazol-2-yloxy)-phenyl]-ethyl}-piperidine-4-carboxylic acid] | 91%
5 | O=C(O)C1CCCN(CCc2ccc(Oc3nc4ccccc4s3)cc2)C1 (stereo not drawn) [Example 155, 1-{2-[4-(Benzothiazol-2-yloxy)-phenyl]-ethyl}-piperidine-3-carboxylic acid] | 93%
6 | c1ccc2sc(Oc3ccc(OCCn4nnnc4C4CCNCC4)cc3)nc2c1 [Example 206, 2-{4-[2-(5-Piperidin-4-yl-tetrazol-1-yl)-ethoxy]-phenoxy}-benzothiazole] | 76%
7 | O=C(O)C1CCN(Cc2ccc(Oc3nc4ccccc4s3)cc2)CC1 [Example 250, 1-[4-(Benzothiazol-2-yloxy)-benzyl]-piperidine-4-carboxylic acid] | 94%
8 | OCC1CCCCN1CCOc1ccc(Oc2nc3ccccc3s2)cc1 (stereo not drawn) [Example 263, (1-{2-[4-(Benzothiazol-2-yloxy)-phenoxy]-ethyl}-piperidin-2-yl)-methanol] | 19%
9 | NC(=O)C1CCN(Cc2ccc(Oc3nc4ccccc4s3)cc2)CC1 [Example 274, 1-[4-(Benzothiazol-2-yloxy)-benzyl]-piperidine-4-carboxylic acid amide] | 87%
10 | O=C(CO)N1CCN(CCc2ccc(Oc3nc4ccccc4s3)cc2)CC1 [Example 325, 1-(4-{2-[4-(Benzothiazol-2-yloxy)-phenyl]-ethyl}-piperazin-1-yl)-2-hydroxy-ethanone] | 67%
11 | O=C1C[C@H](O)CN1C1CCN(CCc2ccc(Oc3nc4ccccc4s3)cc2)CC1 [Example 336, (S)-1-(1-{2-[4-(Benzothiazol-2-yloxy)-phenyl]-ethyl}-piperidin-4-yl)-4-hydroxy-pyrrolidin-2-one] | 0%
12 | CS(=O)(=O)NC1CCN(Cc2ccc(Oc3nc4ccccc4s3)cc2)CC1 [Example 361, N-{1-[4-(Benzothiazol-2-yloxy)-benzyl]-piperidin-4-yl}-methanesulfonamide] | 90%
13 | O=C1C[C@@H](O)CN1C1CCN(Cc2ccc(Oc3nc4ccccc4s3)cc2)CC1 [Example 446, 1-{1-[4-(Benzothiazol-2-yloxy)-benzyl]-piperidin-4-yl}-4-hydroxy-pyrrolidin-2-one] | 43%
14 | O=C1C[C@H](O)CN1C1CCN(Cc2ccc(Oc3nc4ccccc4s3)cc2)CC1 [Example 447, 1-{1-[4-(Benzothiazol-2-yloxy)-benzyl]-piperidin-4-yl}-4-hydroxy-pyrrolidin-2-one] | 48%

Same assay, conditions: Mus musculus, po, read-out: % Inh. MPO

Row | Compound | inhibition at 30 mg/kg
15 | O=C(O)C1CCN(CCOc2ccc(Oc3nc4ccccc4s3)cc2)CC1 [Example 18, 1-{2-[4-(Benzothiazol-2-yloxy)-phenoxy]-ethyl}-piperidine-4-carboxylic acid potassium salt] | 83%

Test system: ionophore-induced LTB4 production
Experiment: not given
Conditions: oral administration; cited from earlier work

Row | Compound | inhibition of ionophore-induced LTB4 production in mouse blood ex vivo
16 | CN(CCCOc1ccc(Cc2ccccc2)cc1)CCC(=O)O.Cl [SC57461] | caused inhibition of ionophore-induced LTB4 production

Test system: ionophore-induced LTB4 production
Experiment: not given
Conditions: oral administration; cited from earlier work
Remark: another data set of the same source

Row | Compound | inhibition of ionophore-induced LTB4 production in rat peritoneum in vivo
17 | CN(CCCOc1ccc(Cc2ccccc2)cc1)CCC(=O)O.Cl [SC57461] | caused inhibition of ionophore-induced LTB4 production

Test system: colitis symptoms
Experiment: not given
Conditions: eight weeks of treatment; cited from earlier work

Row | Compound | colitis symptoms
18 | CN(CCCOc1ccc(Cc2ccccc2)cc1)CCC(=O)O.Cl [SC57461] | significantly improved colitis symptoms
